Legend:
[1] = biological target: Terminally biotinylated beta-amyloid (Aβ42) (Homo sapiens, UniProt P05067); assay: Aβ42 biotinylated (biotin-AB) oligomerization assay, NeutrAvidin capture ELISA; format: biochemical; conditions: approximate value; 1 hr oligomerization at room temperature; read-out: IC50 Aβ 42-bio
Outline: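 Biotin-Aβ42, pretreated with HFIP/TFA to remove seeds, oligomerized 1 h at room temperature with compound in 20 mM sodium phosphate pH 7.5, 150 mM NaCl (DMSO up to 1%). Oligomers captured on NeutrAvidin plates, detected with streptavidin-HRP/TMB at 450 nm; IC50 approximate, in µM.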

[2] = biological target: Aβ40 (Homo sapiens, UniProt P05067); assay: ThT Aβ aggregation assay (kinetic Thioflavin T fluorescence); format: biochemical; conditions: 20 μM Aβ, DMSO control at 80 hr = 0% inhibition, number in parenthesis = compound ID 1027 in that experiment; for inhibition at 5 µM: 80 h, read-out: % inhib Thioflavin T Aβ 40 (5 μm); for inhibition at 10 µM: read-out: % inhib Thioflavin T Aβ 40 10 μM
Method: Preparation of Aβ40 Stock Solutions
Aβ40 (1.0 mg) was pre-treated in a 1.5 mL microfuge tube with HFIP (1 mL) and sonicated for 20 min to disassemble any pre-formed Aβ aggregates. The HFIP was removed with a stream of argon and the Aβ dissolved in Tris base (5.8 mL, 20 mM, pH ˜10). The pH was adjusted to 7.4 with concentrated HCl (˜10 μL) and the solution filtered using a syringe filter (0.2 μm) before being used.
The kinetic ThT assay for Aβ aggregation is similar to that of Chalifour et al (Chalifour et al, 2003, J. Biol. Chem. 278:34874-81). Briefly, pre-treated Aβ40 or Aβ42 (40 μM in 20 mM Tris, pH 7.4) was diluted with an equal volume of 8 μM Thioflavin T (ThT) in Tris (20 mM, pH 7.4, 300 mM NaCl). Aliquots of Aβ/ThT (200 μL) were added to wells of a black polystyrene 96-well plate, followed by 2 μL of a compound in DMSO (variable concentration), or DMSO alone (controls). Incubations were performed in triplicate and were taken to contain 20 μM Aβ, various concentration of compound in 20 mM Tris, pH 7.4, 150 mM NaCl, 1% DMSO. Plates were covered with clear polystyrene lids and incubated at 37° C. in a Tecan Genios microplate reader.
Analysis of ThT and ThS Aggregation Assays
Fluorescence readings (λex=450 nm, λem=480 nm) were taken every 15 min., after first shaking at high intensity for 15 s and allowing to settle for 10 s before each reading. Active compounds attenuated the increase in fluorescence over time that occurred in controls. In FIGS. 1-7, the time this procedure was performed extended to 80 hours (rightmost part of X-axis), at which point fluorescence increase generally reached an asymptote. Applying a definition of DMSO control at 80 hr as 100% aggregation (0% inhibition) and DMSO control at 0 hr as 0% aggregation (100% inhibition), a % inhibition score where higher is better can be calculated for a given concentration of compound. By repeating this procedure over several concentrations, a […] (IC50) can be measured, as is given in the table below for some compounds.

[3] = compound 5 μm (so in the source)

Terminally biotinylated beta-amyloid (Aβ42), sequence (P05067 672-713, species assumed): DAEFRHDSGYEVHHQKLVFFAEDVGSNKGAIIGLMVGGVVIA
Aβ40, sequence (P05067 672-711, species assumed): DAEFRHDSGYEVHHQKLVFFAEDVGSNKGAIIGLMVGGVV

Row | IC50 [1] | % inhib Thioflavin T Aβ 40 10 μM ([2]; compound 10 μM) | % inhib Thioflavin T Aβ 40 (5 μm) [2, 3] | inhibition at 5 µM [2, 3] | inhibition at 10 µM ([2]; compound 10 μM) | Structure (SMILES)
1 | 2.9 µM | – | – | 47% | 54% | O=C(c1cc(N2CC(CN3CCCC3)C2)c2nonc2c1)N1CCOCC1 [compound 1538]
2 | 7.8 µM | – | – | 53% | 55% | COC(c1cc(N2CC(CN3CCCC3)C2)c2nonc2c1)C(F)(F)F (stereo not drawn) [compound 1539]
3 | 1.8 µM | – | – | 41% | 50% | CCN(CC)C(=O)c1cc(N2CC(CN3CCCC3)C2)c2nonc2c1 [compound 1540]
4 | 4 µM | – | – | 19% | 31% | O=C(NC1CC1)c1cc(N2CC(CN3CCCC3)C2)c2nonc2c1 [compound 1541]

Further lines, the compound ahead of its results:

Row | Structure (SMILES) | IC50 [1] | % inhib Thioflavin T Aβ 40 10 μM ([2]; compound 10 μM) | % inhib Thioflavin T Aβ 40 (5 μm) [2, 3] | inhibition at 5 µM [2, 3] | inhibition at 10 µM ([2]; compound 10 μM)
5 | OC(c1cc(-c2cc(N3CC(CN4CCCC4)C3)c3nonc3c2)cs1)C(F)(F)F (stereo not drawn) [compound 1537] | 3.5 µM | 74% | 71% | – | –
6 | CN(C)C(=O)c1ccccc1-c1cc(N2CC(CN3CCCC3)C2)c2nonc2c1 [compound 1542] | > 20 µM | – | – | 15% | 36%
7 | OC(c1ccc(-c2cc(N3CC(CN4CCCC4)C3)c3nonc3c2)s1)C(F)(F)F (stereo not drawn) [compound 1543] | 1.1 µM | – | – | 63% | 84%
